According to patent publication US9944589B2, “Cycloproplyamine derivatives useful as inhibitors of histone demethylases KDM1A” (Istituto Europeo de Oncologia S.r.L., priority 2012, dated 2018):
Counter-ions that a name gives are not always drawn.

Target: T1, human recombinant KDM1A (LSD1)/CoRest (Homo sapiens, UniProt O60341)
T1 construct: made in house; host or cells: E. coli
Assay: Assay of enzyme inhibition of KDM1A (LSD1), Amplex UltraRed/peroxidase coupled
Assay type: biochemical
Settings: 15 min preincubation, 4.5 μM mono-methylated H3-K4 peptide, range classes, read-out: IC50 [μM], KDM1A inhibition assay
Procedure: The experiments were performed using a mono-methylated H3-K4 peptide containing 21 amino acids (custom synthesis done by Thermo Scientific) as substrate and in a 50 mM TRIS, pH 8, 0.05 mg/ml BSA buffer.
The demethylase activity was estimated under aerobic conditions and at RT by measuring the release of H2O2 produced during the catalytic process by the Amplex® UltraRed detection system coupled with peroxidase assay. Briefly, a fixed amount of KDM1A/CoRest complex was incubated at RT for 15 minutes in the absence and/or the presence of various concentrations of inhibitor (e.g. from 0 to 100 μM, depending on the inhibitor strength) and of Amplex® UltraRed detection system coupled with peroxidase assay. The inhibitors were tested twice in duplicates at each concentration. […] The conversion of the Amplex® Ultra Red reagent to resorufin was monitored in continuous by fluorescence (excitation at 540 nm, emission at 590 nm) using a microplate reader (Infinite 200, Tecan). Arbitrary units were used to measure the level of H2O2 produced in the absence and/or in the presence of inhibition. The maximum demethylase activity of KDM1A/CoRest was obtained in the absence of inhibitors and corrected for background fluorescence in the absence of KDM1A/CoRest. The IC50 was calculated using GraphPad Software.

SMILES	IC50 [µM]
CC(C)[C@@]1(N)C[C@H]1c1ccccc1 (relative stereo) [Example A-7, trans-1-isopropyl-2-phenyl-cyclopropanamine hydrochloride]	1 to 5
CC[C@@]1(N)C[C@H]1c1ccc(F)cc1 (relative stereo) [Example A-16, trans-1-ethyl-2-(4-fluorophenyl)cyclopropanamine hydrochloride]	1 to 5
CC[C@@]1(N)C[C@H]1c1ccc(Cl)cc1 (relative stereo) [Example A-17, trans-1-ethyl-2-(4-chlorophenyl)cyclopropanamine; hydrochloride]	0.1 to 1
CC[C@@]1(N)C[C@H]1c1cccc(C(F)(F)F)c1 (relative stereo) [Example A-18, trans-1-ethyl-2-[3-(trifluoromethyl)phenyl]cyclo-propanamine hydrochloride]	0.1 to 1
CC[C@@]1(N)C[C@H]1c1ccc(C(F)(F)F)cc1 (relative stereo) [Example A-19, trans-1-ethyl-2-[4-(trifluoromethyl)phenyl]cyclo-propanamine hydrochloride]	0.1 to 1
CC[C@@]1(N)C[C@H]1c1cccc(OC)c1 (relative stereo) [Example A-23, trans-1-ethyl-2-[3-methoxyphenyl]cyclopro-panamine hydrochloride]	0.1 to 1
CC[C@@]1(N)C[C@H]1c1ccccc1F (relative stereo) [Example A-25, trans-1-ethyl-2-(2-fluorophenyl)cyclopropanamine hydrochloride]	0.1 to 1
CC[C@@]1(N)C[C@H]1c1ccccc1Cl (relative stereo) [Example A-26, trans-1-ethyl-2-(2-chlorophenyl)-cyclopropanamine hydrochloride]	0.1 to 1
CC[C@@]1(N)C[C@H]1c1ccccc1Br (relative stereo) [Example A-27, trans-1-ethyl-2-(2-bromophenyl)-cyclopropanamine hydrochloride]	0.1 to 1
CC[C@@]1(N)C[C@H]1c1ccc(NC(=O)c2cccc(-c3ccccc3)c2)cc1 (relative stereo) [Example A-35]	< 0.1
CC[C@@]1(N)C[C@H]1c1ccc(NC(=O)Cc2ccccc2)cc1 (relative stereo) [Example A-39, N-[4-[(trans-2-amino-2-ethyl-cyclopropyl]phenyl]-2-phenyl-acetamide hydrochloride]	< 0.1
CC[C@@]1(N)C[C@H]1c1cccc(N=[N+]=[N-])c1 (relative stereo) [Example A-49, trans-2-(3-Azidophenyl)-1-ethyl-cyclopropanamine hydrochloride]	< 0.1
N[C@@]1(CCc2ccccc2)C[C@@H]1c1cccc(Br)c1 (relative stereo) [Example A-51, trans 2-(3-bromophenyl)-1-phenethyl-cyclopropanamine hydrochloride]	< 0.1
N[C@]1(Cc2ccc3ccccc3c2)C[C@H]1c1ccc(F)cc1 (relative stereo) [Example A-54, trans-2-(4-fluorophenyl)-1-(2-naphthylmethyl)cyclo-propanamine hydrochloride]	0.1 to 1
N[C@]1(Cc2ccc3ccccc3c2)C[C@H]1c1ccc(Cl)cc1 (relative stereo) [Example A-55, trans-2-(4-chlorophenyl)-1-(2-naphthylmethyl)cyclo-propanamine hydrochloride]	0.1 to 1
N[C@]1(Cc2ccc3ccccc3c2)C[C@H]1c1cccc(Cl)c1 (relative stereo) [Example A-56, trans-2-(3-chlorophenyl)-1-(2-naphthylmethyl)cyclo-propanamine hydrochloride]	0.1 to 1
N[C@]1(Cc2ccc3ccccc3c2)C[C@H]1c1cccc(Br)c1 (relative stereo) [Example A-57, trans-2-(3-bromophenyl)-1-(2-naphthylmethyl)cyclo-propanamine hydrochloride]	0.1 to 1

SMILES	IC50 [µM]
N[C@]1(CCc2ccccc2)C[C@H]1c1ccc(Cl)cc1 (relative stereo) [Example A-58, trans-2-(4-chlorophenyl)-1-phenethyl-cyclopropanamine hydrochloride]	< 0.1
N[C@]1(CCc2ccccc2)C[C@H]1c1ccc(F)cc1 (relative stereo) [Example A-59, trans-2-(4-fluorophenyl)-1-phenethyl-cyclopropanamine hydrochloride]	0.1 to 1
N[C@]1(Cc2ccccc2)C[C@H]1c1ccc(F)cc1 (relative stereo) [Example A-60, trans-1-benzyl-2-(4-fluorophenyl)cyclo-propanamine]	0.1 to 1
N[C@]1(Cc2ccccc2)C[C@H]1c1ccc(Cl)cc1 (relative stereo) [Example A-61, trans-1-benzyl-2-(4-chlorophenyl)cyclo-propanamine hydrochloride]	0.1 to 1
N[C@]1(CCc2ccccc2)C[C@H]1c1ccc(Br)cc1 (relative stereo) [Example A-62, trans 2-(4-bromophenyl)-1-phenethyl-cyclopropanamine 2,2,2-trifluoroacetic acid]	0.1 to 1
CC[C@@]1(N)C[C@H]1c1ccc(NC(=O)c2ccc(-c3ccccc3)c(NC3CCN(C)CC3)c2)cc1 (relative stereo) [Example A-66, N-[4-(trans-2-amino-2-ethyl-cyclopropyl)phenyl]-3-[(1-methyl-4-piperidyl)amino]-4-phenyl-benzamide dihydrochloride]	< 0.1
CC[C@@]1(N)C[C@H]1c1ccc(NC(=O)Cc2ccc([N+](=O)[O-])cc2)cc1 (relative stereo) [Example A-69, N-[4-trans-[2-amino-2-ethyl-cyclopropyl]phenyl]-2-(4-nitrophenyl) acetamide hydrochloride]	< 0.1
CC[C@@]1(N)C[C@H]1c1cccc(NC(=O)c2ccccc2)c1 (relative stereo) [Example A-93, N-[3-[trans-2-amino-2-ethyl-cyclopropyl]phenyl] benzamide hydrochloride]	0.1 to 1
CC[C@@]1(N)C[C@H]1c1ccc(NC(=O)Cc2cccc3ccccc23)c(F)c1 (relative stereo) [Example A-94, N-[4-[trans-2-amino-2-ethyl-cyclopropyl]-2-fluoro-phenyl]-2-(1-naphthyl) acetamide hydrochloride]	< 0.1
CC[C@@]1(N)C[C@H]1c1ccc(NC(=O)c2ccc(N3CCN(C)CC3)cc2)c(F)c1 (relative stereo) [Example A-96, N-[4-[trans-2-amino-2-ethyl-cyclopropyl]-2-fluoro-phenyl]-4-(4-methylpiperazin-1-yl)benzamide 2,2,2-trifluoroacetic acid]	0.1 to 1
CC[C@@]1(N)C[C@H]1c1ccc(NC(=O)c2ccc(C3CCN(C)CC3)cc2)cc1 (relative stereo) [Example A-100, N-[4-[trans-2-amino-2-ethyl-cyclopropyl]phenyl]-4-(1-methyl-4-piperidyl)benzamide 2,2,2-trifluoroacetic acid]	< 0.1
CC[C@@]1(N)C[C@H]1c1ccc(NC(=O)c2ccc(-c3ccncc3)cc2)cc1 (relative stereo) [Example A-102, N-[4-(trans-2-amino-2-ethyl-cyclopropyl]phenyl)-4-(4-pyridyl) benzamide dihydrochloride]	< 0.1
N[C@]1(c2ccccc2)C[C@H]1c1ccc(NC(=O)c2cccc(Cl)c2)cc1 (relative stereo) [Example A-103, N-[4-(trans-2-amino-2-phenyl-cyclopropyl]phenyl]-3-chloro-benzamide hydrochloride]	< 0.1
N[C@]1(c2ccccc2)C[C@H]1c1ccc(NC(=O)Cc2cccc3ccccc23)cc1 (relative stereo) [Example A-104, N-[4-(trans-2-amino-2-phenyl-cyclopropyl)phenyl]-2-(1-naphthyl) acetamide hydrochloride]	< 0.1
N[C@]1(c2ccccc2)C[C@H]1c1ccc(NC(=O)Cc2ccccc2)cc1 (relative stereo) [Example A-105, N-[4-(trans-2-amino-2-phenyl-cyclopropyl)phenyl]-2-phenyl-acetamide hydrochloride]	< 0.1
N[C@]1(c2ccccc2)C[C@H]1c1ccc(NC(=O)c2cccc(-c3ccccc3)c2)cc1 (relative stereo) [Example A-106, N-[4-(trans-2-amino-2-phenyl-cyclopropyl)phenyl]-3-phenyl-benzamide 2,2,2-trifluoroacetic acid]	< 0.1

Same assay, conditions: IC50 [μM], KDM1A inhibition assay, 15 min preincubation, 4.5 μM mono-methylated H3-K4 peptide, range classes

SMILES	IC50 [µM]
CC[C@@]1(N)C[C@H]1c1cccc(F)c1 (relative stereo) [Example A-20, trans-1-ethyl-2-(3-fluorophenyl)cyclopropanamine hydrochloride]	< 0.1
CC[C@@]1(N)C[C@H]1c1cccc(Cl)c1 (relative stereo) [Example A-21, trans-1-ethyl-2-(3-chlorophenyl)-cyclopropanamine hydrochloride]	< 0.1
CC[C@@]1(N)C[C@H]1c1cccc(Br)c1 (relative stereo) [Example A-22, trans-1-ethyl-2-(3-bromophenyl)-cycloproanamine hydrochloride]	< 0.1
CC[C@@]1(N)C[C@H]1c1ccc(Br)c(F)c1 (relative stereo) [Example A-50, trans-2-(4-bromo-3-fluoro-phenyl)-1-ethyl-cyclopropanamine hydrochloride]	< 0.1
